Values of other authors in patent US20070213354A1, “Compositions and Methods for the Treatment of Multiple Sclerosis” (AmpliMed Corporation, priority 2006, published 2007).

Experiments:
[1] = test system: L1210 resistant; conditions: murine leukemia L1210 resistant, P-glycoprotein producing; MTT, continuous exposure; cited from earlier work
[2] = test system: L1210 sensitive; conditions: murine leukemia L1210 sensitive to standard cytotoxic agents; MTT, continuous exposure; cited from earlier work
[3] = test system: neonatal rat myocytes; conditions: 1 hour drug concentration that reduces ATP/protein ratio to 50% of untreated control myocytes; read-out: IC50 Cardiotox; cited from earlier work

Row | SMILES | IC50 [1] [nM] | IC50 [2] [nM] | IC50 [3] [nM]
1 | CN(C)CCN1C(=O)c2cccc3cc4cc(Cl)ccc4c(c23)C1=O [*9-Cl] | 8 | 8 | 1540
2 | O=C1c2cccc3cc4ccccc4c(c23)C(=O)N1CCCN(CCO)CCO [2-(CH2)3N(CH2CH2OH)2] | 142 | 76 | 8910
3 | O=C1c2cccc3cc4ccccc4c(c23)C(=O)N1Cc1ccccn1 [2-CH2-2-pyridyl] | 26700 | 26700 | > 25000
4 | CC(=O)Nc1c2ccccc2c2c3c(cccc13)C(=O)N(CCN(C)C)C2=O [*7-NHCOCH3] | 487 | 487 | > 23600
5 | CN(C)CCN1C(=O)c2cccc3cc4ccccc4c(c23)C1=O [2-(CH2)2N(CH3)2] | 7 | 7 | 1980
6 | CN(C)CCN1C(=O)c2cccc3cc4cccc(Cl)c4c(c23)C1=O [*11-Cl] | 617 | 1780 | 8230
7 | O=C1c2cccc3cc4ccccc4c(c23)C(=O)N1CCN1CCCCC1 [2-(CH2)2N(CH2)5] | 51 | 51 | 10400
8 | CN(C)CCN1C(=O)c2cccc3cc4cccc([N+](=O)[O-])c4c(c23)C1=O [*11-NO2] | 50 | 23 | 8650
9 | CN(C)CCN1C(=O)c2cccc3cc4c(N)cccc4c(c23)C1=O [*8-NH2] | 6780 | 6780 | > 81300
10 | CN(C)CCN1C(=O)c2cccc3cc4ccc(N)cc4c(c23)C1=O [*10-NH2] | 3 | 3 | 943
11 | CN(C)CCN1C(=O)c2cc(NC(=O)C(C)(C)C)cc3cc4ccccc4c(c23)C1=O [*5-NHCOC(CH3)3] | 15 | 44 | 662
12 | Cc1ccc2c3c(c4ccccc4cc13)C(=O)N(CCN(C)C)C2=O [*6-CH3] | 27 | 7 | 989
13 | CNCCN1C(=O)c2ccc(OC)c3cc4ccccc4c(c23)C1=O [2-(CH2)2NHCH3; 6-OCH3] | 27 | 41 | 8100
14 | CN(C)CCN1C(=O)c2ccc(I)c3cc4ccccc4c(c23)C1=O [*6-I] | 416 | 416 | 43700
15 | CN(C)CCN1C(=O)c2ccc(S(C)(=O)=O)c3cc4ccccc4c(c23)C1=O [*6-SO2CH3] | 35 | 35 | 2320
16 | COc1ccc2c3c4c(cccc4cc2c1)C(=O)N(CCN(C)C)C3=O [*9-OCH3] | 54 | 54 | < 2600
17 | COc1ccc2cc3cccc4c3c(c2c1)C(=O)N(CCN(C)C)C4=O [*10-OCH3] | 52 | 21 | 9100
18 | CN(C)CCNc1ccc2c3c(c4ccccc4cc13)C(=O)N(CCN(C)C)C2=O [*6-NH(CH2)2N(CH3)2] | 0.04 | 0.04 | 4190
19 | CSc1c2ccccc2c2c3c(cccc13)C(=O)N(CCN(C)C)C2=O [*7-SCH3] | 1220 | 6250 | > 50000
20 | CN(C)CCN1C(=O)c2ccc(Cl)c3cc4ccccc4c(c23)C1=O [*6-Cl] | 64 | 77 | 4110

Row | SMILES | IC50 [1] [nM] | IC50 [2] [nM] | IC50 [3] [nM]
21 | CN(C)c1ccc(N2C(=O)c3cccc4cc5ccccc5c(c34)C2=O)cc1 [2-(p-N(CH3)2)—C6H5)] | 1790 | 187 | 37300
22 | CN(C)CCN1C(=O)c2cccc3cc4ccc(O)cc4c(c23)C1=O [*10-OH] | 540 | 189 | > 27000
23 | CN(C)CCN1C(=O)c2ccc(NCCO)c3cc4ccccc4c(c23)C1=O [*6-NH(CH2)2OH] | 48 | 6 | 1210
24 | CN(C)CCN1C(=O)c2cccc3cc4ccc(NC(=O)C(C)(C)C)cc4c(c23)C1=O [*10-NHCOC(CH3)3] | 200 | 200 | 11000
25 | CC(=O)Nc1cccc2c3c4c(cccc4cc12)C(=O)N(CCN(C)C)C3=O [*8-NHCOCH3] | 510 | 485 | 12100
26 | CC(=O)Nc1ccc2c3c4c(cccc4cc2c1)C(=O)N(CCN(C)C)C3=O [*9-NHCOCH3] | 170 | 114 | 487
27 | CCOc1c2ccccc2c2c3c(cccc13)C(=O)N(CCN(C)C)C2=O [*7-OC2H5] | 50 | 63 | 5300
28 | Cc1ccc2cc3ccccc3c3c2c1C(=O)N(CCN(C)C)C3=O [*4-CH3] | 68 | 54 | 1360
29 | COc1ccc2c3c(c4ccccc4cc13)C(=O)N(CCN(C)C)C2=O [*6-OCH3] | 4 | 3 | 799
30 | CC(=O)Nc1ccc2cc3cccc4c3c(c2c1)C(=O)N(CCN(C)C)C4=O [*10-NHCOCH3] | 219 | 49 | 7790
31 | CN(C)CCN1C(=O)c2cccc3cc4ccc(C#N)cc4c(c23)C1=O [*10-CN] | 13 | 15 | 105
32 | CN(C)CCN1C(=O)c2cccc3cc4c([N+](=O)[O-])cccc4c(c23)C1=O [*8-NO2] | 20 | 50 | 650
33 | COc1cccc2c3c4c(cccc4cc12)C(=O)N(CCN(C)C)C3=O [*8-OCH3] | 18 | 13 | 806
34 | CNCCN1C(=O)c2cccc3cc4ccccc4c(c23)C1=O [2-(CH2)2NHCH3] | 21 | 10 | 7060
35 | CN(C)CCNc1ccc2c3c(c4cccc(Cl)c4cc13)C(=O)N(CCN(C)C)C2=O [*6-NH(CH2)2N(CH3)2; 8-Cl] | 7 | 3 | 3230
36 | O=C1c2cccc3cc4ccccc4c(c23)C(=O)N1CCNCCO [2-(CH2)2NH(CH2)2OH] | 41 | 18 | 943
37 | O=C1c2cccc3cc4ccccc4c(c23)C(=O)N1CCN1CCNCC1 [2-(CH2)2—N-piperazinyl] | 463 | 174 | 6710
38 | CN(C)CCN1C(=O)c2cccc3cc4cccc(O)c4c(c23)C1=O [*11-OH] | 189 | 189 | 15400
39 | Cc1ccc2cc3cccc4c3c(c2c1)C(=O)N(CCN(C)C)C4=O [*10-CH3] | 54 | 41 | 1000
40 | CN(C)CCN1C(=O)c2cccc3cc4cccc(N)c4c(c23)C1=O [*11-NH2] | 678 | 678 | 27100

Row | SMILES | IC50 [1] [nM] | IC50 [2] [nM] | IC50 [3] [nM]
41 | CCc1ccc2c3c(c4ccccc4cc13)C(=O)N(CCN(C)C)C2=O [*6-C2H5] | 235 | 183 | 7830
42 | CC(=O)Nc1cc2c3c(c4ccccc4cc3c1)C(=O)N(CCN(C)C)C2=O [*5-NHCOCH3] | 73 | 19 | 177
43 | CC(=O)Nc1cccc2cc3cccc4c3c(c12)C(=O)N(CCN(C)C)C4=O [*11-NHCOCH3] | 2430 | 243 | > 22500
44 | CCN1CCCC1CN1C(=O)c2cccc3cc4ccccc4c(c23)C1=O (centres unmarked) [2-CH2-(1-ethyl-2-pyrrolidinyl)] | 55 | 36 | 15200
45 | O=C1c2cccc3cc4ccccc4c(c23)C(=O)N1c1cccnc1 [2-(3-pyridyl)] | 554 | 544 | > 25000
46 | CN(C)CCN1C(=O)c2ccc(N(C)C)c3cc4ccccc4c(c23)C1=O [*6-N(CH3)2] | 96 | 23 | 46600
47 | CN(C)CCOc1ccc2c3c(c4ccccc4cc13)C(=O)N(CCN(C)C)C2=O [*6-O(CH2)2N(CH3)2] | 1 | 0.2 | 5440
48 | Cc1c2ccccc2c2c3c(cccc13)C(=O)N(CCN(C)C)C2=O [*7-CH3] | 70 | 34 | 1680
49 | CN(C)CCN1C(=O)c2ccc(O)c3cc4ccccc4c(c23)C1=O [*6-OH] | 145 | 217 | > 24100
50 | CN(C)CCN1C(=O)c2cccc3cc4ccc(F)cc4c(c23)C1=O [*10-F] | – | 8 | 456
51 | CN(C)CCN1C(=O)c2c(NC(=O)C(C)(C)C)ccc3cc4ccccc4c(c23)C1=O [*4-NHCOC(CH3)3] | 172 | 862 | > 24600
52 | COc1cccc2c1C(=O)c1c(O)c3c(c(O)c1C2=O)C[C@@](O)(C(=O)CO)C[C@@H]3O[C@H]1C[C@H](N)[C@H](O)[C@H](C)O1 [Doxorubicin, reference compound] | 3880 | 35 | 10200
53 | CN(C)CCN1C(=O)c2cccc3c(O)c4ccccc4c(c23)C1=O [*7-OH] | 212 | 472 | > 24100
54 | CN(C)CCN1C(=O)c2c(Cl)ccc3cc4ccccc4c(c23)C1=O [*4-Cl] | 15 | 10 | 900
55 | CN(C)CCN1C(=O)c2ccc(N)c3cc4ccccc4c(c23)C1=O [*6-NH2] | 27 | 5 | 1490
56 | CCSc1ccc2c3c(c4ccccc4cc13)C(=O)N(CCN(C)C)C2=O [*6-SC2H5] | 5 | 6 | 7740
57 | CN(C)CCNc1ccc2cc3ccccc3c3c2c1C(=O)N(CCN(C)C)C3=O [*4-NH(CH2)2N(CH3)2] | 245 | 210 | 734
58 | CN1CCCC1CCN1C(=O)c2cccc3cc4ccccc4c(c23)C1=O (centres unmarked) [2-(CH2)2-(1-methyl-2-pyrrolidinyl)] | 56 | 51 | 7080
59 | CN(C)CCN1C(=O)c2cccc3c(Cl)c4ccccc4c(c23)C1=O [*7-Cl] | 206 | 154 | 10800
60 | O=C1c2cccc3cc4ccccc4c(c23)C(=O)N1CCN1CCCC1 [2-(CH2)2N(CH2)4] | 12 | 15 | 920
